Laboratory results taken from PubChem BioAssay (NCI).
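Test compounds were applied to cells in 96-well plates for 48 hours at 5 doses. TGI is the concentration that stops growth completely.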

Legend:
Assay in all cases: NCI-60 cell line screen, 48 h
SR leukemia = test system: SR leukemia
OVCAR-4 ovarian = test system: OVCAR-4 ovarian
MOLT-4 leukemia = test system: MOLT-4 leukemia
LXFL 529 NSCLC = test system: LXFL 529 NSCLC
HCC-2998 colon = test system: HCC-2998 colon
SF-268 CNS = test system: SF-268 CNS
IGROV1 ovarian = test system: IGROV1 ovarian
HL-60(TB) leukemia = test system: HL-60(TB) leukemia
M14 melanoma = test system: M14 melanoma
786-0 renal = test system: 786-0 renal
HOP-62 NSCLC = test system: HOP-62 NSCLC
MALME-3M melanoma = test system: MALME-3M melanoma
SK-OV-3 ovarian = test system: SK-OV-3 ovarian
RPMI-8226 leukemia = test system: RPMI-8226 leukemia
SK-MEL-28 melanoma = test system: SK-MEL-28 melanoma
COLO 205 colon = test system: COLO 205 colon
SK-MEL-2 melanoma = test system: SK-MEL-2 melanoma
SF-539 CNS = test system: SF-539 CNS
NCI-H23 lung = test system: NCI-H23 lung
SNB-78 CNS = test system: SNB-78 CNS
DMS 273 small cell lung = test system: DMS 273 small cell lung
HCT-116 colon = test system: HCT-116 colon
CAKI-1 renal = test system: CAKI-1 renal
SNB-75 CNS = test system: SNB-75 CNS
HCT-15 colon = test system: HCT-15 colon
UACC-62 melanoma = test system: UACC-62 melanoma
M19-MEL melanoma = test system: M19-MEL melanoma
UO-31 renal = test system: UO-31 renal
NCI-H226 lung = test system: NCI-H226 lung
XF 498 CNS = test system: XF 498 CNS
NCI-H522 lung = test system: NCI-H522 lung
K-562 leukemia = test system: K-562 leukemia
CCRF-CEM leukemia = test system: CCRF-CEM leukemia
ACHN renal = test system: ACHN renal
NCI-H460 lung = test system: NCI-H460 lung
DLD-1 colon = test system: DLD-1 colon
A498 renal = test system: A498 renal
HOP-92 NSCLC = test system: HOP-92 NSCLC
SN12C renal = test system: SN12C renal

Structure (SMILES): CCOc1ccc(NC(=O)c2c(N/N=C/c3ccc(OC)cc3)nc(=O)[nH]c2C)cc1
- TGI (SR leukemia): > 100 µM
- TGI (OVCAR-4 ovarian): 88.4 µM
- TGI (MOLT-4 leukemia): > 100 µM
- TGI (LXFL 529 NSCLC): > 100 µM
- TGI (HCC-2998 colon): > 100 µM
- TGI (SF-268 CNS): > 100 µM
- TGI (IGROV1 ovarian): > 100 µM
- TGI (HL-60(TB) leukemia): > 100 µM
- TGI (M14 melanoma): > 100 µM
- TGI (786-0 renal): > 100 µM
- TGI (HOP-62 NSCLC): > 100 µM
- TGI (MALME-3M melanoma): > 100 µM
- TGI (SK-OV-3 ovarian): 83.1 µM
- TGI (RPMI-8226 leukemia): > 100 µM
- TGI (SK-MEL-28 melanoma): > 100 µM
- TGI (COLO 205 colon): > 100 µM
- TGI (SK-MEL-2 melanoma): > 100 µM
- TGI (SF-539 CNS): 91 µM
- TGI (NCI-H23 lung): > 100 µM
- TGI (SNB-78 CNS): > 100 µM
- TGI (DMS 273 small cell lung): > 100 µM
- TGI (HCT-116 colon): > 100 µM
- TGI (CAKI-1 renal): > 100 µM
- TGI (SNB-75 CNS): 96.5 µM
- TGI (HCT-15 colon): > 100 µM
- TGI (UACC-62 melanoma): > 100 µM
- TGI (M19-MEL melanoma): > 100 µM
- TGI (UO-31 renal): > 100 µM
- TGI (NCI-H226 lung): > 100 µM
- TGI (XF 498 CNS): > 100 µM
- TGI (NCI-H522 lung): 69.7 µM
- TGI (K-562 leukemia): > 100 µM
- TGI (CCRF-CEM leukemia): > 100 µM
- TGI (ACHN renal): > 100 µM
- TGI (NCI-H460 lung): > 100 µM
- TGI (DLD-1 colon): > 100 µM
- TGI (A498 renal): 39.4 µM
- TGI (HOP-92 NSCLC): > 100 µM
- TGI (SN12C renal): > 100 µM
